Reference: patent publication EP1044015B1, “FORMULATIONS FOR AMYLIN AGONIST PEPTIDES WITH INSULIN” (AMYLIN PHARMACEUTICALS, INC., priority 1998, dated 2008)

Test: Adsorption onto glass container
Format: physicochemical
Details: liquid form
Source text: However, with regard to amylin agonists or amylins which do have such a tendency, a surfactant should be used in their formulation which formulations should then be lyophilized. Surfactants frequently cause denaturation of protein, both of hydrophobic disruption and by salt bridge separation. Relatively low concentrations of surfactant exert a potent denaturing activity, because of the strong interactions between surfactant moieties and the reactive sites on proteins. However, judicious use of this interaction can stabilize proteins against interfacial or surface denaturation. Surfactants which could further stabilize the peptide may optionally be present in the range of about 0.001 to 0.3% (w/v) of the total formulation and include polysorbate 80 (i.e., polyoxyethylene(20) sorbitan monooleate), CHAPS° (i.e., 3-[(3-cholamidopropyl) dimethylammonio] 1-propanesulfonate), Brij° (e.g., Brij 35, which is (polyoxyethylene (23) lauryl ether), poloxamer, or another non-ionic surfactant.

^25,28,29Pro-h- amylin [Pramlintide]
tendency to adsorb onto the glass: does not have a tendency to adsorb onto the glass
